# Reference: patent US20250338846A1, “COMPOSITIONS HAVING PESTICIDAL UTILITY AND PROCESSES RELATED THERETO” (CORTEVA AGRISCIENCE, LLC, priority 2022, published 2025)
# Where “and” joins values, the source holds several entries; their conditions need not be identical. Equal values may be shown once. Read-outs that look alike come from different tables or passages of the source.
# Experiments:
# [1] = tested on: Green Peach Aphid (Myzus persicae, MYZUPE); assay: Bioassay 1: Green Peach Aphid, foliar spray on infested cabbage seedlings, live aphids counted three days after treatment; type: in vivo
# Experimental: Bioassay 1: Green Peach Aphid (Myzus persicae, MYZUPE) (“GPA”).
# The stock solutions were prepared with Formula One as well as for each of the active ingredients individually. Test solutions were prepared from the stock solutions. Test solutions were prepared containing Formula One, the individual active ingredients, and mixtures of Formula One with each of the active ingredients. The test solutions for Formula One and the individual active ingredients were prepared by adding 750 microliters (μL) of stock solution to a 25 mL glass vial, then adding 750 μL of 1:1 acetone: methanol solvent, followed by the addition of 13.5 ml water with 0.025% Tween®) 20 to create a 0.0005% (weight/volume (w/v)) solution. The test solutions containing mixtures of Formula One and the individual active ingredients were prepared by adding 750 μL of the active ingredient stock solution to a 25 mL glass vial, followed by 750 μL of the Formula One stock solution, then by the addition of 13.5 mL water with 0.025% Tween®) 20 to create a test solution containing 0.0005% (w/v) Formula One and 0.0005% (w/v) of the active ingredient. Each test solution was serially diluted to create desired doses of test solutions (0.0005% (w/v), 0.000125% (w/v), 0.00003125% (w/v), 0.0000078% (w/v), 0.00000195% (w/v), and 0.0000005% (w/v)).
# The test solutions were tested against GPA using the following procedure: Cabbage seedlings, grown in 3-inch pots with 2-3 small (3-5 centimeter (cm)) true leaves, were used as test substrate. The seedlings were infested with 20-50 GPA (wingless adult and nymph stages) one day prior to chemical application. Four pots with individual seedlings were used for each treatment. A hand-held aspirator-type sprayer was used for spraying a solution to both sides of […] leaves until runoff. Reference plants (solvent check) were sprayed with the diluent only (0.025% Tween®) 20 and 10% acetone:methanol (1:1) in water). Treated plants were held in a holding room for three days at approximately 25° C. and ambient relative humidity (RH about 20% to about 45%) prior to grading. Evaluation was conducted by counting the number of live aphids per plant under a microscope three days after treatment. Percent control was measured using Abbott's correction formula (W. S. Abbott, J. Econ. Entomol. 18 (1925), pp. 265-267) as follows:
# where X=No. of live aphids on solvent check plants and Y=No. of live aphids on treated plants. In Table B1 the “Expected % Control” was calculated using the method described in Colby S. R., Weeds, 1967, 15, 20-22. Bioassay 2: Sweet Potato Whitefly (Bemisia tabaci, BEMITA) (“SPW”).
# [2] = tested on: Western Flower Thrips (Frankliniella occidentalis, FRANOC); assay: Bioassay 3: Western Flower Thrips, cotton leaf disc dip, live WFT counted 3 days after treatment; type: in vivo; conditions: for pest or weed control at 7.8e-05 % strength: read-out: Average % Control AI
# Procedure, shortened: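 Cotton leaf discs were dipped in acetone/water solutions with 0.025% Tween 20, at 0.005% to 0.0000195% (w/v) for single actives; mixtures held Formula One constant at 0.04% (w/v). Discs were air dried, infested with 5 nymphs aged 9-10 days, and held at approximately 26° C. Live thrips were counted at 3 days, with Abbott-corrected control against solvent checks.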
# [3] = Frankliniella occidentalis, foliar, 72 h, AI alone 0.0003125 % w/v
compound,measurement,setting,value
Cc1c(COC(=O)[C@@H]2[C@H](/C=C(\Cl)C(F)(F)F)C2(C)C)cccc1-c1ccccc1 (racemic) [Bifenthrin],Average % Control AI,[1]; AI alone 0.78 (10^-5) % w/v,52%
CC1(C)[C@H](C(=O)O[C@H](C#N)c2cccc(Oc3ccccc3)c2)[C@@H]1/C=C(\Cl)C(F)(F)F (racemic) [Lambda Cyhalothrin],Average % Control AI,[1]; AI alone 0.78 (10^-5) % w/v,40%
same,pest or weed control at 0.0003125 % strength,[2]; [3],7%
COP(=O)(NC(C)=O)SC (stereo not shown) [Acephate],pest or weed control at 7.8e-05 % strength,"[2]; Frankliniella occidentalis, foliar, 72 h",5%
C/C(=N\C#N)N(C)Cc1ccc(Cl)nc1 [Acetamiprid],Average % Control AI,[1]; AI alone 0.78 (10^-5) % w/v,24%
same,pest or weed control at 0.0003125 % strength,[2]; [3],13%
CC[S+]([O-])c1c(C#N)nn(-c2c(Cl)cc(C(F)(F)F)cc2Cl)c1N (stereo not shown) [Ethiprole],Average % Control AI,[1]; AI alone 3.125 (10^-5) % w/v,0%
same,pest or weed control at 0.005 % strength,"[2]; Frankliniella occidentalis, foliar, 72 h, AI alone 0.005 % w/v",0%
CON=CNC(=O)c1ccc(C2=NOC(c3cc(Cl)cc(Cl)c3)(C(F)(F)F)C2)cc1C (stereo not shown) [Fluxametamide],Average % Control AI,[1]; AI alone 12.5 (10^-5) % w/v,0%
same,Average % Control AI,[2]; AI alone 0.0003125 % w/v,67%
"CCN(C(=O)CCS(C)(=O)=O)c1sc(-c2cccnc2)nc1Cl [Formula F1, N-(4-chloro-2-(pyridin-3-yl)thiazol-5-yl)-N-ethyl-3-(methylsulfonyl)propanamide]",Average % Control F1,[1]; F1 alone 0.05 (10^-5) % w/v,29%
same,Average % Control F1,[1]; F1 alone 0.195 (10^-5) % w/v,13%
same,Average % Control F1,[1]; F1 alone 0.78 (10^-5) % w/v,28%
same,Average % Control F1,[1]; F1 alone 3.125 (10^-5) % w/v,30% and 35%
same,Average % Control F1,[1]; F1 alone 12.5 (10^-5) % w/v,39%
O=[N+]([O-])NC1=NCCN1Cc1ccc(Cl)nc1 [Imidacloprid],pest or weed control at 0.0003125 % strength,[2]; [3],0%
CN1COCN(Cc2cnc(Cl)s2)/C1=N\[N+](=O)[O-] [Thiamethoxam],pest or weed control at 7.8e-05 % strength,"[2]; Frankliniella occidentalis, foliar, 72 h, AI alone 0.000078 % w/v",7%
Emamectin Benzoate,Average % Control AI,[1]; AI alone 3.125 (10^-5) % w/v,21%
same,Average % Control AI,[2]; AI alone 0.005 % w/v,38%
